Measured values taken from PubChem BioAssay AID256 (DTP/NCI, 2004).
Values joined by “and” are separate entries in the source; they are usually repeats but may differ in a detail not shown here. Equal values may be shown once. Inconclusive results and toxic doses are left out.

Test system: CD2F1 mice, L1210 leukemia ip, survival T/C
Test: NCI In Vivo Anticancer Drug Screen. Data for tumor model L1210 Leukemia (intraperitoneal) in CD2F1 (CDF1) mice
Conditions: higher = longer survival
How it was run: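 Implant tumor; dose compound or vehicle; measure endpoint in both groups; report treated divided by control.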

[1] = endpoint: mean survival time, dose: 100.0 mg/kg/injection, schedule: Q04DX003 (ip), vehicle: saline with Tween-80
[2] = endpoint: mean survival time, dose: 200.0 mg/kg/injection, schedule: Q04DX003 (ip), vehicle: saline with Tween-80
[3] = endpoint: mean survival time, dose: 50.0 mg/kg/injection, schedule: Q01DX009 (ip), vehicle: saline with Tween-80
[4] = endpoint: mean survival time, dose: 100.0 mg/kg/injection, schedule: Q01DX009 (ip), vehicle: saline with Tween-80
[5] = endpoint: mean survival time, dose: 100.0 mg/kg/injection, schedule: Q04DX002 (ip), vehicle: saline with Tween-80
[6] = endpoint: mean survival time, dose: 400.0 mg/kg/injection, schedule: Q04DX003 (ip), vehicle: saline with Tween-80
[7] = endpoint: mean survival time, dose: 200.0 mg/kg/injection, schedule: Q01DX009 (ip), vehicle: saline with Tween-80
[8] = endpoint: mean survival time, dose: 100.0 mg/kg/injection, schedule: Q04DX003 (ip), vehicle: Klucel (hydroxypropylcellulose) (HPC)
[9] = endpoint: mean survival time, dose: 200.0 mg/kg/injection, schedule: Q04DX003 (ip), vehicle: Klucel (hydroxypropylcellulose) (HPC)
[10] = endpoint: mean survival time, dose: 400.0 mg/kg/injection, schedule: Q04DX003 (ip), vehicle: Klucel (hydroxypropylcellulose) (HPC)
[11] = endpoint: mean survival time, dose: 400.0 mg/kg/injection, schedule: Q01DX009 (ip), vehicle: saline with Tween-80

CSc1nc(N)c2c(n1)nc(N(C)C)n2O
T/C (endpoint: mean survival time, dose: 12.5 mg/kg/injection, schedule: Q01DX005 (ip), vehicle: water): 106 % of control | T/C (endpoint: mean survival time, dose: 25.0 mg/kg/injection, schedule: Q01DX005 (ip), vehicle: water): 102 % of control | T/C (endpoint: mean survival time, dose: 50.0 mg/kg/injection, schedule: Q01DX005 (ip), vehicle: water): 93 % of control | T/C (endpoint: mean survival time, dose: 100.0 mg/kg/injection, schedule: Q01DX005 (ip), vehicle: water): 95 % of control | T/C (endpoint: mean survival time, dose: 200.0 mg/kg/injection, schedule: Q01DX005 (ip), vehicle: water): 97 % of control

COc1cc(C(=O)C=C(C(F)(F)F)C(F)(F)F)cc(OC)c1OC
T/C [1]: 101 % of control | T/C [2]: 98 % of control

C[C@@H]1C[C@@]2(C)[C@@H](CC[C@@H]3[C@@H]2CC[C@@]2(C)[C@H]3CC[C@]2(C)O)CC1=O
T/C (endpoint: mean survival time, dose: 25.0 mg/kg/injection, schedule: Q01DX009 (ip), vehicle: saline with Tween-80): 95 % of control | T/C [3]: 95 % of control | T/C [4]: 94 % of control | T/C [1]: 91 % of control

O=[N+]([O-])c1ccc(SC2CCC(Cl)C3CCCCC23)c([N+](=O)[O-])c1 (stereo not drawn)
T/C (endpoint: mean survival time, dose: 25.0 mg/kg/injection, schedule: Q04DX002 (ip), vehicle: saline with Tween-80): 93 % of control | T/C (endpoint: mean survival time, dose: 50.0 mg/kg/injection, schedule: Q04DX002 (ip), vehicle: saline with Tween-80): 90 % of control | T/C [5]: 86 % of control and 93 % of control | T/C (endpoint: mean survival time, dose: 400.0 mg/kg/injection, schedule: Q04DX002 (ip), vehicle: saline with Tween-80): 86 % of control

CCCC(CN(C)C)C(=O)c1ccccc1 (stereo not drawn)
T/C [5]: 86 % of control

N#CC(C#N)=Cc1cc2ccccc2c2ccccc12
T/C [1]: 109 % of control | T/C [2]: 97 % of control | T/C [6]: 101 % of control

CC1CCCCC1O (stereo not drawn)
T/C (endpoint: mean survival time, dose: 50.0 mg/kg/injection, schedule: Q01DX001 (ip), vehicle: carboxymethylcellulose (CMC)): 97 % of control | T/C [3]: 103 % of control | T/C (endpoint: mean survival time, dose: 100.0 mg/kg/injection, schedule: Q01DX001 (ip), vehicle: carboxymethylcellulose (CMC)): 108 % of control | T/C [4]: 103 % of control | T/C (endpoint: mean survival time, dose: 100.0 mg/kg/injection, schedule: Q04DX003 (ip), vehicle: saline): 103 % of control | T/C (endpoint: mean survival time, dose: 200.0 mg/kg/injection, schedule: Q01DX001 (ip), vehicle: carboxymethylcellulose (CMC)): 92 % of control | T/C [7]: 95 % of control | T/C (endpoint: mean survival time, dose: 200.0 mg/kg/injection, schedule: Q04DX003 (ip), vehicle: saline): 103 % of control | T/C (endpoint: mean survival time, dose: 400.0 mg/kg/injection, schedule: Q01DX001 (ip), vehicle: carboxymethylcellulose (CMC)): 100 % of control | T/C (endpoint: mean survival time, dose: 400.0 mg/kg/injection, schedule: Q04DX003 (ip), vehicle: saline): 95 % of control

CC(C)CC(CCl)Cc1nc2ccccc2[nH]1 (stereo not drawn)
T/C [5]: 94 % of control | T/C (endpoint: mean survival time, dose: 200.0 mg/kg/injection, schedule: Q04DX002 (ip), vehicle: saline with Tween-80): 97 % of control

CC1CN1C(=O)Nc1cccc2c(NC(=O)N3CC3C)cccc12 (stereo not drawn)
T/C (endpoint: mean survival time, dose: 28.0 mg/kg/injection, schedule: Q01DX009 (ip), vehicle: Klucel (hydroxypropylcellulose) (HPC)): 151 % of control

FC(F)(F)c1ccc2ccc3ccc(Cl)cc3c2c1
T/C (endpoint: mean survival time, dose: 37.5 mg/kg/injection, schedule: Q01DX009 (ip), vehicle: saline): 97 % of control | T/C (endpoint: mean survival time, dose: 75.0 mg/kg/injection, schedule: Q01DX009 (ip), vehicle: saline): 94 % of control | T/C (endpoint: mean survival time, dose: 75.0 mg/kg/injection, schedule: Q04DX003 (ip), vehicle: saline): 91 % of control | T/C (endpoint: mean survival time, dose: 150.0 mg/kg/injection, schedule: Q01DX009 (ip), vehicle: saline): 91 % of control | T/C (endpoint: mean survival time, dose: 150.0 mg/kg/injection, schedule: Q04DX003 (ip), vehicle: saline): 95 % of control | T/C (endpoint: mean survival time, dose: 300.0 mg/kg/injection, schedule: Q04DX003 (ip), vehicle: saline): 97 % of control

COc1cc2c(cc1OC)C(Cc1ccc(NC(=O)c3ccc(C(=O)Nc4ccc(CC5c6cc(OC)c(OC)cc6CCN5C)cc4)cc3)cc1)N(C)CC2 (stereo not drawn)
T/C (endpoint: mean survival time, dose: 100.0 mg/kg/injection, schedule: Q01DX001 (ip), vehicle: other): 107 % of control | T/C (endpoint: mean survival time, dose: 200.0 mg/kg/injection, schedule: Q01DX001 (ip), vehicle: other): 101 % of control | T/C (endpoint: mean survival time, dose: 400.0 mg/kg/injection, schedule: Q01DX001 (ip), vehicle: other): 103 % of control

N[C@@H](Cc1c[nH]c2ccccc12)C(=O)Nc1nncs1
T/C (endpoint: median survival time, dose: 8.35 mg/kg/injection, schedule: Q03HX027 (ip), vehicle: saline): 96 % of control | T/C (endpoint: median survival time, dose: 16.7 mg/kg/injection, schedule: Q03HX027 (ip), vehicle: saline): 100 % of control | T/C (endpoint: median survival time, dose: 33.4 mg/kg/injection, schedule: Q03HX027 (ip), vehicle: saline): 103 % of control | T/C (endpoint: median survival time, dose: 47.88 mg/kg/injection, schedule: Q03HX027 (ip), vehicle: saline): 107 % of control | T/C (endpoint: median survival time, dose: 48.0 mg/kg/injection, schedule: Q03HX027 (ip), vehicle: saline): 108 % of control | T/C (endpoint: median survival time, dose: 50.0 mg/kg/injection, schedule: Q01DX009 (ip), vehicle: saline): 98 % of control | T/C (endpoint: median survival time, dose: 66.7 mg/kg/injection, schedule: Q03HX027 (ip), vehicle: saline): 103 % of control | T/C (endpoint: median survival time, dose: 79.8 mg/kg/injection, schedule: Q03HX027 (ip), vehicle: saline): 113 % of control | T/C (endpoint: median survival time, dose: 79.92 mg/kg/injection, schedule: Q03HX027 (ip), vehicle: saline): 113 % of control | T/C (endpoint: median survival time, dose: 100.0 mg/kg/injection, schedule: Q01DX009 (ip), vehicle: saline): 97 % of control | T/C (endpoint: median survival time, dose: 133.2 mg/kg/injection, schedule: Q03HX027 (ip), vehicle: saline): 116 % of control | T/C (endpoint: median survival time, dose: 200.0 mg/kg/injection, schedule: Q01DX009 (ip), vehicle: saline): 105 % of control | T/C (endpoint: median survival time, dose: 222.0 mg/kg/injection, schedule: Q03HX027 (ip), vehicle: saline): 116 % of control | T/C (endpoint: median survival time, dose: 369.45 mg/kg/injection, schedule: Q03HX027 (ip), vehicle: saline): 87 % of control | T/C (endpoint: median survival time, dose: 400.0 mg/kg/injection, schedule: Q01DX009 (ip), vehicle: saline): 120 % of control

O=C1CC(c2ccccc2)=NN1c1ccccc1
T/C [8]: 98 % of control | T/C [9]: 95 % of control | T/C [10]: 101 % of control

COc1cc(C(Cl)C2OC(CO)C(O)C2O)nc(C)n1 (stereo not drawn)
T/C (endpoint: median survival time, dose: 18.38 mg/kg/injection, schedule: Q01DX005 (ip), vehicle: saline): 110 % of control | T/C (endpoint: median survival time, dose: 26.0 mg/kg/injection, schedule: Q01DX005 (ip), vehicle: saline): 103 % of control | T/C (endpoint: median survival time, dose: 36.75 mg/kg/injection, schedule: Q01DX005 (ip), vehicle: saline): 97 % of control | T/C (endpoint: median survival time, dose: 52.0 mg/kg/injection, schedule: Q01DX005 (ip), vehicle: saline): 102 % of control | T/C (endpoint: median survival time, dose: 73.5 mg/kg/injection, schedule: Q01DX005 (ip), vehicle: saline): 100 % of control | T/C (endpoint: median survival time, dose: 104.0 mg/kg/injection, schedule: Q01DX005 (ip), vehicle: saline): 107 % of control | T/C (endpoint: median survival time, dose: 147.0 mg/kg/injection, schedule: Q01DX005 (ip), vehicle: saline): 103 % of control | T/C (endpoint: median survival time, dose: 208.0 mg/kg/injection, schedule: Q01DX005 (ip), vehicle: saline): 101 % of control

O[O][Sn][c]1ccccc1
T/C [3]: 93 % of control | T/C [4]: 89 % of control | T/C [1]: 100 % of control | T/C [7]: 91 % of control | T/C [2]: 97 % of control

Cc1ccc(NS(=O)(=O)c2ccccc2)c([N+](=O)[O-])c1
T/C [4]: 97 % of control | T/C [1]: 105 % of control | T/C [7]: 95 % of control | T/C [2]: 97 % of control | T/C [11]: 100 % of control | T/C [6]: 100 % of control

CCOCc1cccc2ccccc12
T/C [4]: 98 % of control | T/C [7]: 102 % of control | T/C [11]: 94 % of control

CCOC(=O)CSc1ccc(F)cc1
T/C (endpoint: mean survival time, dose: 100.0 mg/kg/injection, schedule: Q01DX001 (ip), vehicle: saline): 90 % of control | T/C (endpoint: mean survival time, dose: 200.0 mg/kg/injection, schedule: Q01DX001 (ip), vehicle: saline): 100 % of control | T/C (endpoint: mean survival time, dose: 400.0 mg/kg/injection, schedule: Q01DX001 (ip), vehicle: saline): 91 % of control

CC(=O)Nc1ccc(OC(=O)Nc2ccc(F)c(Cl)c2)cc1
T/C [4]: 98 % of control | T/C [7]: 93 % of control | T/C [11]: 110 % of control

CCCCNC(=O)Nc1ccccc1Cl
T/C [4]: 91 % of control | T/C [1]: 101 % of control | T/C [7]: 94 % of control | T/C [2]: 100 % of control | T/C [11]: 100 % of control | T/C [6]: 92 % of control

CC(=O)Nc1cccc(C)n1
T/C (endpoint: mean survival time, dose: 75.0 mg/kg/injection, schedule: Q01DX001 (ip), vehicle: saline): 98 % of control | T/C (endpoint: mean survival time, dose: 150.0 mg/kg/injection, schedule: Q01DX001 (ip), vehicle: saline): 98 % of control

CCOC(=O)/C=C/c1ccc(O)cc1
T/C [8]: 102 % of control | T/C [9]: 98 % of control | T/C [10]: 98 % of control
